The term melting point denotes the temperature, or range, at which the solid turns liquid.

Data set [1] deals with T1, human adenosine-A2A receptors (Homo sapiens, UniProt P29274).
T1 construct: expressed in transfected cells; host or cells: HEK-293 cells
The experiment in a line: In vitro affinity for human adenosine-A2A receptors, [3H]CGS 21680 radioligand binding. As to conditions: human recombinant receptors expressed in HEK-293 cells, read-out: Adenosine receptor affinity A2A pKi (converted). On the procedure:
Affinity of the compounds for human adenosine-A2A receptors was determined using the receptor binding assay described by D. R. Luthin et al. (Mol. Pharmacol., 47, 307, 1995), using human recombinant receptors expressed in HEK-293 cells, and [^3H]CGS 21680 as radioligand.

Data set [2] deals with T2, human adenosine-A1 receptors (Homo sapiens, UniProt P30542).
T2 construct: expressed in transfected cells; host or cells: CHO cells
T2 sequence (P30542 1-326): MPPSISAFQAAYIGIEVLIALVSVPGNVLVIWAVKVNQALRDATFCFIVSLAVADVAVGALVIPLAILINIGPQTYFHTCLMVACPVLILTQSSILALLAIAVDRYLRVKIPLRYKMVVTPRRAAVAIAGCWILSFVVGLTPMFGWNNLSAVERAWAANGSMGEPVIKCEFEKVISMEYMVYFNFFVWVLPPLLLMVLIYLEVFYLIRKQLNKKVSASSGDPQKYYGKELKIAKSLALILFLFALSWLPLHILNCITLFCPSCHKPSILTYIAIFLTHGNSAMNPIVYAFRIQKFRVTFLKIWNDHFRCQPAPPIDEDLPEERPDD
The experiment in a line: In vitro affinity for human adenosine-A1 receptors, [3H]DPCPX radioligand binding. As to conditions: human recombinant receptors expressed in CHO cells, read-out: Adenosine receptor affinity A1 pKi (converted). On the procedure: Affinity of the compounds for human adenosine-A1 receptors was determined using the receptor binding assay described by A. Townsend-Nicholson and P. R. Schofield (Biol. Chem., 269, 2373, 1994), using human recombinant receptors expressed in CHO cells, and [^3H]DPCPX as radioligand.

Data set [3] concerns the target T3, human adenosine-A3 receptor (Homo sapiens, UniProt P0DMS8).
T3 construct: expressed in transfected cells; membrane preparations
T3 sequence (P0DMS8 1-318): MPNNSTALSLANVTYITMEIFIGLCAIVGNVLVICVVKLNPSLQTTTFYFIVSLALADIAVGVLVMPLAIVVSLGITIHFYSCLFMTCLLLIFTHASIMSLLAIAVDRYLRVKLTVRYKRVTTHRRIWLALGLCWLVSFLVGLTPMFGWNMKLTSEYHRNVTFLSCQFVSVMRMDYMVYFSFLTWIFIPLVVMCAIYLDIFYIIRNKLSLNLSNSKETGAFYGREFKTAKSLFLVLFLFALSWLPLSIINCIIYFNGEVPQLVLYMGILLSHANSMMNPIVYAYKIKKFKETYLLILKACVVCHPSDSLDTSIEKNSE
As to the kind of experiment: In vitro affinity for human adenosine-A3 receptors, [125I]-AB-MECA radioligand binding. As to conditions: human recombinant (HEK 293) cell membranes, read-out: Adenosine receptor affinity A3 pKi (converted). On the procedure:
Affinity of the compounds for human adenosine-A3 receptors was determined using the receptor binding assay described by C. A. Salvatore et al.: “Molecular cloning and characterization of the human A3 adenosine receptor”, Proc. Natl. Acad. Sci. USA, 90, 10365-10369, 1993. Briefly, membrane preparations were obtained from human recombinant (HEK 293) cells in which the human adenosine-A3 receptor was stably expressed. Membranes were incubated at 22° C. for 90 minutes with [^125I]-AB-MECA in the absence or presence of test compounds in a concentration range from 10 μM down to 0.1 nM, diluted in a suitable buffer. Separation of bound radioactivity from free was done by filtration through Packard GF/B glass fiber filters with several washings with ice-cold buffer using a Packard cell harvester. Bound radioactivity was measured with a scintillation counter (Topcount, Packard) using a liquid scintillation cocktail (Microscint 0, Packard). Measured radioactivity was plotted against the concentration of the displacing test compound and displacement curves were calculated by four-parameter logistic regression, resulting in IC50 values, i.e. that concentration of displacing compound by which 50% of the radioligand is displaced. […]

T1 sequence (P29274 whole entry): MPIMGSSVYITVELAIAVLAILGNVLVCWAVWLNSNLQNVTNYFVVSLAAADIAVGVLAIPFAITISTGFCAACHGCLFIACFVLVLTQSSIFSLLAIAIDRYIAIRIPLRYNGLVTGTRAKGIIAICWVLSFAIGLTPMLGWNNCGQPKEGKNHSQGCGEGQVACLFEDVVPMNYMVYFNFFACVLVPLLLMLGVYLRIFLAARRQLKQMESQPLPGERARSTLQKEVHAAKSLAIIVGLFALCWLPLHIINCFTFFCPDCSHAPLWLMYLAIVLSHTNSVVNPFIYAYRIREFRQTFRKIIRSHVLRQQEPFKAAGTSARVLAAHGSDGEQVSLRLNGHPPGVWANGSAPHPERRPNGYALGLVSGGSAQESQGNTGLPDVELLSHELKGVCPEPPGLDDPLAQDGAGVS

`Cn1cnc2c(N)cc(N3OC4C=CC3CC4)nc21` (stereo not drawn) [Compound 1, 2-(2-oxa-3-azabicyclo[2.2.2]oct-5-en-3-yl)-6-amino-9-methyl-1-deazapurine] had a melting point of 169.9 °C. Moreover, the Ki in data set [1] was 15800 nM.

For the compound `Cn1cnc2c(N)cc(N[C@H]3CC[C@@H](O)CC3)nc21` [Compound 2, 2-(cis-4-hydroxycyclohexylamino)-6-amino-9-methyl-1-deazapurine], the Ki in data set [1] was 7940 nM.

Compound `Cn1cnc2c(N)cc(NN=CCc3ccccc3)nc21` [Compound 3, 2-(2-phenylethyl-hydrazone)-6-amino-9-methyl-1-deazapurine] came in with a melting point of 182.1 °C. Further, in data set [2], the Ki was 2510 nM. In data set [1], the Ki was 3160 nM.

The compound `Cn1cnc2c(N)cc(NN=Cc3ccccc3)nc21` [Compound 4, 2-benzylhydrazone-6-amino-9-methyl-1-deazapurine] gave a melting point of 231.7 to 232.8 °C. In data set [2], the Ki was 3980 nM. For the same compound, in data set [1], the Ki was 1260 nM. The Ki in data set [3] was 2510 nM.

With `COc1ccc(C=NNc2cc(N)c3ncn(C)c3n2)cc1` [Compound 5, 2-(4-methoxy-2-benzylhydrazon)-6-amino-9-methyl-1-deazapurine], the Ki in data set [1] is 1000 nM.

Regarding `COc1ccc(C=NNc2cc(N)c3ncn(C)c3n2)c(OC)c1` [Compound 6, 2-(2,4-dimethoxy-2-benzylhydrazon)-6-amino-9-methyl-1-deazapurine], the values for the Ki in data set [2] and in data set [1] were 6310 nM and 2000 nM, respectively.

Turning to `Cn1cnc2c(N)cc(NN=CC3CCCCC3)nc21` [Compound 8, 2-(cyclohexylmethyl-hydrazone)-6-amino-9-methyl-1-deaza-purine], the Ki in data set [2] is 3160 nM; in data set [1] it was 2000 nM.

Values taken from patent publication US7338964B2, “2-substituted-1-deaza purine derivatives with adenosine receptor modulating activity” (Solvay Pharmaceuticals, B.V., priority 2004, dated 2008).
